Experimental data from patent US20070197603A1 (published 2007).

melting point | SMILES
205 to 206 °C | Cl.OCCn1c(-c2ccccc2)c(CN2CCC(c3c(Cl)cccc3Cl)CC2)c2ccccc21
168 to 170 °C | Cc1[nH]c2ccccc2c1CN1CCC(c2c(Cl)cccc2Cl)CC1
169 to 171 °C | Cl.Clc1cccc(Cl)c1C1CCN(Cc2c(-c3ccccc3)[nH]c3ccccc23)CC1
189 to 190 °C | Cl.Clc1cccc(Cl)c1C1CCN(Cc2c[nH]c3ccccc23)CC1
209 to 210 °C | Cl.Clc1cccc(Cl)c1C1CCN(Cc2c(-c3ccccc3)n(Cc3ccccc3)c3ccccc23)CC1
238 to 240 °C | Cl.Clc1cccc(Cl)c1C1CCN(Cc2cc3ccccc3[nH]2)CC1
150 to 152 °C | CCCn1c(-c2ccccc2)c(CN2CCC(c3c(Cl)cccc3Cl)CC2)c2ccccc21.Cl
162 to 164 °C | Clc1cccc(Cl)c1C1CCN(Cc2[nH]c3ccccc3c2-c2ccccc2)CC1
263 to 265 °C | Cl.OCCn1c(CN2CCC(c3c(Cl)cccc3Cl)CC2)cc2ccccc21
139 to 141 °C | Cc1c(CN2CCC(c3c(Cl)cccc3Cl)CC2)[nH]c2ccccc12
179 to 184 °C (dec.) | Cl.Cn1c(-c2ccccc2)c(CN2CCC(c3c(Cl)cccc3Cl)CC2)c2ccccc21
128 to 130 °C | Cc1cccc(C)c1C1CCN(Cc2cc3ccccc3[nH]2)CC1
